Data published in PubChem BioAssay (NCI).
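Growth conditions: 96-well plates. Treatment: test compound, 48 hours, 5 concentrations. Analysis: linear interpolation between bracketing concentrations; unreached endpoints set to highest concentration. TGI denotes the concentration required for complete inhibition of growth.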

Legend:
Assay in all cases: inhibition of tumour cell growth, NCI panel, 48 h
SK-OV-3 ovarian = system: SK-OV-3 ovarian
SK-MEL-5 melanoma = system: SK-MEL-5 melanoma
SF-539 CNS = system: SF-539 CNS
OVCAR-3 ovarian = system: OVCAR-3 ovarian
SF-295 CNS = system: SF-295 CNS
OVCAR-8 ovarian = system: OVCAR-8 ovarian
T-47D breast = system: T-47D breast
NCI-H23 lung = system: NCI-H23 lung
EKVX NSCLC = system: EKVX NSCLC
SK-MEL-28 melanoma = system: SK-MEL-28 melanoma
MDA-N = system: MDA-N
OVCAR-5 ovarian = system: OVCAR-5 ovarian
UACC-62 melanoma = system: UACC-62 melanoma
MDA-MB-231 breast = system: MDA-MB-231 breast
CCRF-CEM leukemia = system: CCRF-CEM leukemia
M14 melanoma = system: M14 melanoma
HOP-62 NSCLC = system: HOP-62 NSCLC
BT-549 breast = system: BT-549 breast
SNB-19 CNS = system: SNB-19 CNS
HCT-15 colon = system: HCT-15 colon

SMILES	TGI (SK-OV-3 ovarian) [µM]	TGI (SK-MEL-5 melanoma) [µM]	TGI (SF-539 CNS) [µM]	TGI (OVCAR-3 ovarian) [µM]	TGI (SF-295 CNS) [µM]	TGI (OVCAR-8 ovarian) [µM]	TGI (T-47D breast) [µM]	TGI (NCI-H23 lung) [µM]	TGI (EKVX NSCLC) [µM]	TGI (SK-MEL-28 melanoma) [µM]	TGI (MDA-N) [µM]	TGI (OVCAR-5 ovarian) [µM]	TGI (UACC-62 melanoma) [µM]	TGI (MDA-MB-231 breast) [µM]	TGI (CCRF-CEM leukemia) [µM]	TGI (M14 melanoma) [µM]	TGI (HOP-62 NSCLC) [µM]	TGI (BT-549 breast) [µM]	TGI (SNB-19 CNS) [µM]	TGI (HCT-15 colon) [µM]
Cc1cccc2c(N)c3cccc(C(=O)NCC[N+](C)(C)Cc4sccc4[N+](=O)[O-])c3nc12	41.3	> 100	14.4	> 100	> 100	35.9	> 100	30	> 100	> 100	80.2	33.1	36	67.7	> 100	32.8	> 100	66.2	> 100	> 100
O=C(NNc1ccnc2cc(Cl)ccc12)/C(=C\c1ccccc1Cl)NC(=O)c1ccccc1	> 100	81.2	72.7	38.2	96.1	43.5	> 100	> 100	> 100	> 100	> 100	> 100	70.9	> 100	> 100	> 100	48.6	87.8	> 100	> 100
CCOC(=O)C(NCc1ccc2c(c1)OCO2)(NC(=O)c1ccccc1)C(F)(F)F (stereo not given)	> 100	> 100	> 100	> 100	> 100	> 100	> 100	> 100	> 100	> 100	> 100	> 100	> 100	> 100	67.8	> 100	> 100	> 100	> 100	> 100
CN(C)c1nc2n(CCO)c(-c3ccccc3)c(-c3ccccc3)nc-2c(=O)n1	> 100	> 100	> 100	> 100	> 100	> 100	> 100	> 100	> 100	> 100	> 100	> 100	> 100	> 100	> 100	> 100	> 100	> 100	> 100	> 100
CCn1c(-c2ccc(F)cc2)nc2c1C(=O)c1ccccc1C2=O	> 100	> 100	> 100	> 100	> 100	> 100	> 100	> 100	> 100	> 100	> 100	> 100	> 100	> 100	> 100	> 100	> 100	> 100	> 100	> 100
